From patent US11098055B2, “Ester ACC inhibitors and uses thereof” (Gilead Apollo, LLC, priority 2015, dated 2021)
≈ marks a conversion by molar mass, not a printed value. Like-named read-outs stand apart in the source and are kept apart here.

Assays:
[1] = target: fACC2 (UniProt Q00955); test: In vitro ACC2 inhibition assay (ADP-Glo), fungal ACC2; format: biochemical
Protocol: An exemplary procedure for the in vitro ACC inhibition assay, which can be used to determine the inhibitory action of compounds of the invention toward either human (hACC2) or fungal (fACC2) ACC2, follows. The ADP-Glo™ Kinase Assay kit from Promega was used. The ADP-Glo™ Kinase Assay is a luminescent ADP detection assay to measure enzymatic activity by quantifying the amount of ADP produced during an enzyme reaction. The assay is performed in two steps; first, after the enzyme reaction, an equal volume of ADP-Glo™ Reagent is added to terminate the reaction and deplete the remaining ATP. Second, the Kinase Detection Reagent is added to simultaneously convert ADP to ATP and allow the newly synthesized ATP to be measured using a luciferase/luciferin reaction. Luminescence can be correlated to ADP concentrations by using an ATP-to-ADP conversion curve. The detailed procedure is as follows. 50 μL of the compound being tested (600 μM in DMSO) was added to a 384-well dilution plate. The compound was diluted 1:3 in succession in DMSO for each row for 11 wells. 0.5 μL ACC2 working solution was added to 384-well white Optiplate assay plate. 0.5 μL diluted compound solution in each column from step 2 was added to assay plate, each row containing 2 replicates. For the last 2 rows, 0.5 μL negative control (DMSO) was added in one row and 0.5 μL positive control (compound I-97) in the other. The plates were incubated at room temperature for 15 minutes. 5 μL substrate working solution was added to each well to initiate reaction. Final ACC2 reaction concentrations consist of: 5 nM ACC2, 20 μM ATP, 20 μM acetyl-CoA, 12 mM NaHCO3, 0.01% Brij35, 2 mM DTT, 5% DMSO, test compound concentrations: 30 μM, 10 μM, 3.33 μM, 1.11 μM, 0.37 μM, 0.123 μM, 0.0411 μM, 0.0137 μM, 0.00457 μM, 0.00152 μM, and 0.00051 μM. Plates were incubated at room temperature for 60 minutes. 10 μL ADP glo reagent was added. Plates were incubated at room temperature for 40 minutes. 20 μL kinase detection reagent was added. Plates were incubated at room temperature for 40 minutes, and then read on a Perkin Elmer EnVision 2104 plate reader for luminescence as Relative Light Units (RLU).
Data for each concentration, as well as the positive and negative controls, were averaged, and the standard deviation calculated. Percent inhibition was calculated by the formula: 100×(average negative control−compound)/(average negative control−average positive control). The IC50 for each compound was calculated by fitting the data with a non-linear regression equation: Y=Bottom+(Top−Bottom)/(1+10^((Log IC50−X)*HillSlope)), where X is the log of compound concentration and Y is percent inhibition.

[2] = test system: Botrtyis cinerea (Bc); test: Growth inhibition assay of fungal pathogens; format: cell-based; conditions: 48 h, read-out: Concentration at 90% Inhibition Bc
Protocol: (§1) Compounds of the present invention were evaluated in a growth inhibition assay to determine the ability to control the growth of fungal pathogens, such as Botrtyis cinerea (Bc), Collectotrichum graminicola (Cg), Diplodia maydis (Dm), Fusarium moniliforme (Fm), Fusarium virguhforme (Fv), Phytophthora capsici (Pc), Rhizoctonia solani (Rs), and Septoria tritici (St). Compounds to be tested were dissolved in DMSO at 2.5 mg/ml to produce compound stock solutions (“stocks”). Stocks were diluted with DMSO by a five-fold dilution in a 96-well stock plate, and two sets of final concentrations of 50, 10, and 2 ppm or 2, 0.4, and 0.08 ppm were obtained in vitro. A set of positive controls was also prepared, with various concentrations of Soraphen (2, 0.4, and 0.08 ppm), Metalaxyl (1.1, 0.22, and 0.04 ppm), and Metconazole (2, 0.4, and 0.08 ppm or 0.2, 0.04, and 0.008 ppm) after the five-fold dilutions. Negative controls on each plate included 2% DMSO, water, and a blank (media+2% DMSO). Fungal spores were isolated from previously sub-cultured plates of Botrtyis cinerea (Bc), Collectotrichum graminicola (Cg), Diplodia maydis (Dm), Fusarium moniliforme (Fm), Fusarium virguliforme (Fv), Phytophthora capsici (Pc), and Septoria tritici (St). The isolated spores were diluted to individual concentrations with a 17% V8 liquid media. For Rhizoctonia solani (Rs) and Pythium irregulare, 1.5 mm mycelial plugs were used in place of spores and ¼ Potato Dextrose Broth (PDB) was used for dilution. The spore concentrations and plug sizes were based on growth curves generated at 48 hours for each pathogen. In a second 96-well plate, the spores or mycelial plugs, media, diluted compound solutions, and controls were combined. Once the compound was added, a true final concentration of compound in each well was measured by an OD600 reading, which adjusted for any compound precipitation that might have occurred in the well. Plate readings were repeated at both 24 and 48 hours. The blank negative control was used as a background subtraction. Additional visual ratings were performed at both 24 and 48 hours for checking on precipitation and confirming efficacy. Visual and OD600 ratings of the compounds at 48 hours were compared to the 2% DMSO negative control, and the percent of pathogen growth inhibition was determined based on those values.

[3] = test system: Collectotrichum graminicola (Cg); test: Growth inhibition assay of fungal pathogens; format: cell-based; conditions: 48 h, read-out: Concentration at 90% Inhibition Cg
Protocol: as §1

[4] = test system: Diplodia maydis (Dm); test: Growth inhibition assay of fungal pathogens; format: cell-based; conditions: Stenocarpella maydis, 48 h, read-out: Concentration at 90% Inhibition Dm
Protocol: as §1

[5] = test system: Fusarium moniliforme (Fm); test: Growth inhibition assay of fungal pathogens; format: cell-based; conditions: Fusarium verticillioides, 48 h, read-out: Concentration at 90% Inhibition Fm
Protocol: as §1

[6] = test system: Fusarium virguliforme (Fv); test: Growth inhibition assay of fungal pathogens; format: cell-based; conditions: 48 h, read-out: Concentration at 90% Inhibition Fv
Protocol: as §1

[7] = test system: Phytophthora capsici (Pc); test: Growth inhibition assay of fungal pathogens; format: cell-based; conditions: 48 h, read-out: Concentration at 90% Inhibition Pc
Protocol: as §1

[8] = test system: Rhizoctonia solani (Rs); test: Growth inhibition assay of fungal pathogens; format: cell-based; conditions: 48 h, read-out: Concentration at 90% Inhibition Rs
Protocol: as §1

[9] = test system: Septoria tritici (St); test: Growth inhibition assay of fungal pathogens; format: cell-based; conditions: Zymoseptoria tritici, 48 h, read-out: Concentration at 90% Inhibition St
Protocol: as §1

fACC2, sequence (Q00955 whole entry): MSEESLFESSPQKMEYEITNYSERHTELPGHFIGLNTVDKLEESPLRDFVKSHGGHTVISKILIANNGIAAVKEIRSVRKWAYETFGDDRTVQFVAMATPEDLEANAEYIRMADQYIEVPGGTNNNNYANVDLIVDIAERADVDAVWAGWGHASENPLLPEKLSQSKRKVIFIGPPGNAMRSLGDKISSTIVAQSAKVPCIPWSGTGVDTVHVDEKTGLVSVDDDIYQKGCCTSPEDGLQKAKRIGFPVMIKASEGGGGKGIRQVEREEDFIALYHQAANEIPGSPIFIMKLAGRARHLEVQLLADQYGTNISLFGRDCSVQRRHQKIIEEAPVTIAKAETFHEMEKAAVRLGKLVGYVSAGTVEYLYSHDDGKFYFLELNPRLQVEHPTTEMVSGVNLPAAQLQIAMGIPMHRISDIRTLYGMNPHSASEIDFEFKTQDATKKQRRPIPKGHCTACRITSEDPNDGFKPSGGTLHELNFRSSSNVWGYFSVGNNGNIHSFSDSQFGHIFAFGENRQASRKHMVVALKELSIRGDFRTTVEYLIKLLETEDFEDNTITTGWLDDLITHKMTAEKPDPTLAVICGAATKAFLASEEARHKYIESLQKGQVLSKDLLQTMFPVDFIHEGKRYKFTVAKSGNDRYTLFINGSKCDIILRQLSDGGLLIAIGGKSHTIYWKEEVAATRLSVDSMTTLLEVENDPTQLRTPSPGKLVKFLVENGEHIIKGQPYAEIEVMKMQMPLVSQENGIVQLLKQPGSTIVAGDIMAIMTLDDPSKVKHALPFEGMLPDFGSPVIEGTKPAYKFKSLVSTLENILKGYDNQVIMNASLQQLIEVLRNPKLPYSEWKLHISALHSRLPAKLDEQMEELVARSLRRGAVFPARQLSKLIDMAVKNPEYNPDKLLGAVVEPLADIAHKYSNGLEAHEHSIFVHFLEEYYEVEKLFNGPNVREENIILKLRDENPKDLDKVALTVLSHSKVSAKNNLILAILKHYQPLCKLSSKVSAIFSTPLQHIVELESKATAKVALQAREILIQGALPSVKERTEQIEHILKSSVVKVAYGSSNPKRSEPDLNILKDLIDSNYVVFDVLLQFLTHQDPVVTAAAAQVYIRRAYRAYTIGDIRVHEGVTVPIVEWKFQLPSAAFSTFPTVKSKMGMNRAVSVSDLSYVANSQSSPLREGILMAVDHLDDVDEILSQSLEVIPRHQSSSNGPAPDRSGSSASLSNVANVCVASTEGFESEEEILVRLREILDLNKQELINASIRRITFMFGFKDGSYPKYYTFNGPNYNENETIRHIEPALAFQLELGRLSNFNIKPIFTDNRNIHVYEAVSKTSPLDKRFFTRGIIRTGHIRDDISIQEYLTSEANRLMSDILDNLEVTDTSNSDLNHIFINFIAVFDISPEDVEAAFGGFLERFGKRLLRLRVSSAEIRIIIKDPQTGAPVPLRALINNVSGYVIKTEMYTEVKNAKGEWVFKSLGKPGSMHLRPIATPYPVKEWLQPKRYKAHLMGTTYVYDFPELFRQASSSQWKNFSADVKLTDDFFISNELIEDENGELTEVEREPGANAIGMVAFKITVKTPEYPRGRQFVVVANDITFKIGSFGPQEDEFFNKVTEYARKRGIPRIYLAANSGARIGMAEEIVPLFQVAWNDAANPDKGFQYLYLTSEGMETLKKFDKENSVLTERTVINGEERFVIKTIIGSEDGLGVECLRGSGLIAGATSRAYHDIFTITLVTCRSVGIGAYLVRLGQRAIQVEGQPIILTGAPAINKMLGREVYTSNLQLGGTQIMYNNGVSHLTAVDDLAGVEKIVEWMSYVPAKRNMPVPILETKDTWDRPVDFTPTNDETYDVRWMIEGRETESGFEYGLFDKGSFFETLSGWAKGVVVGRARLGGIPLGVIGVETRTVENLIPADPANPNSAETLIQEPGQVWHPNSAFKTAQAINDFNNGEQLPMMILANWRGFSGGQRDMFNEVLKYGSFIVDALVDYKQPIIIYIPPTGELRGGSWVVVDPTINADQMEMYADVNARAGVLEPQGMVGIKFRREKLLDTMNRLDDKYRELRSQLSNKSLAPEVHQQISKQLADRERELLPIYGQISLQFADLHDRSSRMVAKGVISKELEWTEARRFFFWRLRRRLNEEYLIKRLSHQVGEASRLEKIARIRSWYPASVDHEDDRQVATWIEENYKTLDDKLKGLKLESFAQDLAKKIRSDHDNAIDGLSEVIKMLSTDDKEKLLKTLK

SMILES	IC50 ([1]; Table 2a)	IC50 ([1]; Table 2b (additional results))	IC90 ([2]; Table 4a)	IC90 ([2]; Table 4b)	IC90 ([3]; Table 4a)	IC90 ([3]; Table 4b)	IC90 ([4]; Table 4a)	IC90 ([4]; Table 4b)	IC90 ([5]; Table 4a)	IC90 ([5]; Table 4b)	IC90 ([6]; Table 4a)	IC90 ([6]; Table 4b)	IC90 ([7]; Table 4a)	IC90 ([7]; Table 4b)	IC90 ([8]; Table 4a)	IC90 ([8]; Table 4b)	IC90 ([9]; Table 4a)	IC90 ([9]; Table 4b)
CCOC(=O)c1sc2c(c1C)c(=O)n(C(C)(C)C(=O)NC(C)C)c(=O)n2C[C@H](OC1CCOCC1)c1ccccc1OC [Compound I-8, (R)-ethyl 3-(1-(isopropylamino)-2-methyl-1-oxopropan-2-yl)-1-(2-(2-methoxyphenyl)-2-((tetrahydro-2H-pyran-4-yl)oxy)ethyl)-5-methyl-2,4-dioxo-1,2,3,4-tetrahydrothieno[2,3-d]pyrimidine-6-carboxylate]	0.6 to 3 nM	0.3 to 3 nM	0.4 µg/mL (≈ 0.65 µM)	0.4 µg/mL (≈ 0.65 µM)	2 µg/mL (≈ 3.25 µM)	2 µg/mL (≈ 3.25 µM)	2 µg/mL (≈ 3.25 µM)	2 µg/mL (≈ 3.25 µM)	0.08 µg/mL (≈ 0.13 µM)	0.08 µg/mL (≈ 0.13 µM)	2 µg/mL (≈ 3.25 µM)	2 µg/mL (≈ 3.25 µM)	≥ 50 µg/mL	≥ 50 µg/mL	≥ 50 µg/mL	10 µg/mL (≈ 16.2 µM)	≥ 50 µg/mL	≥ 50 µg/mL
CCOC(=O)c1sc2c(c1C)c(=O)n(C(C)(C)C(=O)NC(C)C)c(=O)n2C[C@H](OCCS(C)(=O)=O)c1cc(F)ccc1OC [Compound I-36, ethyl (R)-1-(2-(5-fluoro-2-methoxyphenyl)-2-(2-(methylsulfonyl)ethoxy)ethyl)-3-(1-(isopropylamino)-2-methyl-1-oxopropan-2-yl)-5-methyl-2,4-dioxo-1,2,3,4-tetrahydrothieno[2,3-d]pyrimidine-6-carboxylate]	–	0.3 to 3 nM	–	2 µg/mL (≈ 3.05 µM)	–	0.4 µg/mL (≈ 0.61 µM)	–	2 µg/mL (≈ 3.05 µM)	–	0.4 µg/mL (≈ 0.61 µM)	–	2 µg/mL (≈ 3.05 µM)	–	≥ 50 µg/mL	–	0.4 µg/mL (≈ 0.61 µM)	–	≥ 50 µg/mL
CCNC(=O)C(C)(C)n1c(=O)c2c(C)c(C(=O)OCC)sc2n(C[C@H](O)c2cc(F)ccc2OC)c1=O [Compound I-39, ethyl (R)-3-(1-(ethylamino)-2-methyl-1-oxopropan-2-yl)-1-(2-(5-fluoro-2-methoxyphenyl)-2-hydroxyethyl)-5-methyl-2,4-dioxo-1,2,3,4-tetrahydrothieno[2,3-d]pyrimidine-6-carboxylate]	–	0.3 to 3 nM	–	10 µg/mL (≈ 18.7 µM)	–	≥ 50 µg/mL	–	≥ 50 µg/mL	–	2 µg/mL (≈ 3.73 µM)	–	2 µg/mL (≈ 3.73 µM)	–	≥ 50 µg/mL	–	0.08 µg/mL (≈ 0.149 µM)	–	≥ 50 µg/mL
CCOC(=O)c1sc2c(c1C)c(=O)n(C(C)(C)C(=O)NC(C)C)c(=O)n2C[C@H](OCC(C)(C)C#N)c1ccccc1OC [Compound I-38, ethyl (R)-1-(2-(2-cyano-2-methylpropoxy)-2-(2-methoxyphenyl)ethyl)-3-(1-(isopropylamino)-2-methyl-1-oxopropan-2-yl)-5-methyl-2,4-dioxo-1,2,3,4-tetrahydrothieno[2,3-d]pyrimidine-6-carboxylate]	–	0.3 to 3 nM	–	0.4 µg/mL (≈ 0.653 µM)	–	2 µg/mL (≈ 3.26 µM)	–	2 µg/mL (≈ 3.26 µM)	–	0.08 µg/mL (≈ 0.131 µM)	–	2 µg/mL (≈ 3.26 µM)	–	≥ 50 µg/mL	–	2 µg/mL (≈ 3.26 µM)	–	≥ 50 µg/mL
CCOC(=O)c1sc2c(c1C)c(=O)n([C@H](C)C(=O)NC(C)C)c(=O)n2C[C@H](O)c1cc(F)ccc1OC [Compound I-43, ethyl 1-((R)-2-(5-fluoro-2-methoxyphenyl)-2-hydroxyethyl)-3-((R)-1-(isopropylamino)-1-oxopropan-2-yl)-5-methyl-2,4-dioxo-1,2,3,4-tetrahydrothieno[2,3-d]pyrimidine-6-carboxylate]	–	0.3 to 3 nM	–	2 µg/mL (≈ 3.73 µM)	–	10 µg/mL (≈ 18.7 µM)	–	10 µg/mL (≈ 18.7 µM)	–	0.08 µg/mL (≈ 0.149 µM)	–	0.4 µg/mL (≈ 0.747 µM)	–	≥ 50 µg/mL	–	2 µg/mL (≈ 3.73 µM)	–	≥ 50 µg/mL
CCOC(=O)c1sc2c(c1C)c(=O)n([C@@H](C)C(N)=O)c(=O)n2C[C@H](OCCC#N)c1cc(F)ccc1OC [Compound I-25, ethyl 3-((S)-1-amino-1-oxopropan-2-yl)-1-((R)-2-(2-cyanoethoxy)-2-(5-fluoro-2-methoxyphenyl)ethyl)-5-methyl-2,4-dioxo-1,2,3,4-tetrahydrothieno[2,3-d]pyrimidine-6-carboxylate]	–	0.3 to 3 nM	–	≥ 50 µg/mL	–	≥ 50 µg/mL	–	≥ 50 µg/mL	–	10 µg/mL (≈ 18.3 µM)	–	≥ 50 µg/mL	–	≥ 50 µg/mL	–	0.4 µg/mL (≈ 0.732 µM)	–	≥ 50 µg/mL
CCOC(=O)c1sc2c(c1C)c(=O)n(C(C)(C)C(=O)NC(C)C)c(=O)n2C[C@H](OCCOC)c1cc(F)ccc1OC [Compound I-11, (R)-ethyl 1-(2-(5-fluoro-2-methoxyphenyl)-2-(2-methoxy-ethoxy)ethyl)-3-(1-(isopropylamino)-2-methyl-1-oxopropan-2-yl)-5-methyl-2,4-dioxo-1,2,3,4-tetrahydrothieno[2,3-d]pyrimidine-6-carboxylate]	0.6 to 3 nM	0.3 to 3 nM	2 µg/mL (≈ 3.29 µM)	2 µg/mL (≈ 3.29 µM)	2 µg/mL (≈ 3.29 µM)	2 µg/mL (≈ 3.29 µM)	2 µg/mL (≈ 3.29 µM)	2 µg/mL (≈ 3.29 µM)	0.08 µg/mL (≈ 0.132 µM)	0.08 µg/mL (≈ 0.132 µM)	0.4 µg/mL (≈ 0.658 µM)	0.4 µg/mL (≈ 0.658 µM)	≥ 50 µg/mL	≥ 50 µg/mL	≥ 50 µg/mL	10 µg/mL (≈ 16.5 µM)	≥ 50 µg/mL	≥ 50 µg/mL
